Source: patent US8216619B2, “Stable and bioavailable compositions of isomers of carotenoids for skin and hair” (Indena S.p.A., priority 2006, dated 2012)

Experiment: Stability of pure lycopene isomers in n-hexane during storage at room temperature
Assay type: physicochemical
Settings: for concentration (% of total isomers) 5-Z / concentration (% of total isomers) all E / concentration (% of total isomers) x-Z / concentration (% of total isomers) 9-Z / concentration (% of total isomers) 13-Z: n-hexane, room temperature, absence of light
Experimental: Pure 5-Z, 9-Z, 13-Z and all-E lycopene were isolated from isomerised tomato oleoresin (submitted to 1 hour heating), by collecting the fractions containing the corresponding peaks after HPLC separation (see below the experimental conditions). Peaks were collected during two consecutive HPLC runs and the corresponding fractions were pooled.
Lycopene isomer profiles were determined by normal phase HPLC according to the method described by Schierle et al. (Schierle, J., Bretzel, W., Bühler, I., Faccin, N., Hess, D., Steiner, K., Schuep, W. (1997). Food. Chem. 59: 459). Samples of isomerized oleoresins were dissolved in n-hexane containing 50 ppm BHT and spun at maximum speed in an Eppendorf Lab centrifuge. The resulting supernatants were immediately analyzed by HPLC. The HPLC system used was a 1100 series Hewlett-Packard model equipped with an ultraviolet-visible photodiode array detector. Data were simultaneously acquired at 470 nm, 464 nm, 346 nm and 294 nm. Samples (10 μL) were separated using a combination of three Nucleosil 300-5 columns (4 mm internal diameter×250 mm length, Macherey-Nagel). […] Flow rate was 0.8 mL/min. Lycopene Z-isomers were identified according to literature data.
Amounts of lycopene isomers were calculated based on surface areas of the HPLC peaks using the same extinction coefficient as the all-E lycopene. Therefore, the lycopene concentration in products containing Z-isomers is slightly underestimated since it is recognized that the extinction coefficients of Z-isomers are lower than that of the all-E isomer.
Stability of lycopene isomers was investigated both in n-hexane and in a tomato oleoresin isomerized by 4 hour heating in ethyl acetate. For this purpose, pure lycopene isomers were stored for 33 days in n-hexane at room temperature and in the absence of light, and the isomerized tomato oleoresin was kept for 55 days at room temperature in the absence of light. Total lycopene concentration and lycopene isomer profiles were measured at various time intervals during the storage.

concentration (% of total isomers) 5-Z (0 days)	concentration (% of total isomers) all E (0 days)	concentration (% of total isomers) x-Z (0 days)	concentration (% of total isomers) 5-Z (1 day)	concentration (% of total isomers) all E (1 day)	concentration (% of total isomers) x-Z (1 day)	concentration (% of total isomers) 5-Z (2 days)	concentration (% of total isomers) all E (2 days)	concentration (% of total isomers) x-Z (2 days)	concentration (% of total isomers) 5-Z (5 days)	concentration (% of total isomers) all E (5 days)	concentration (% of total isomers) x-Z (5 days)	concentration (% of total isomers) 5-Z (12 days)	concentration (% of total isomers) 9-Z (12 days)	concentration (% of total isomers) 13-Z (12 days)	concentration (% of total isomers) all E (12 days)	concentration (% of total isomers) x-Z (12 days)	concentration (% of total isomers) 5-Z (33 days)	concentration (% of total isomers) 9-Z (33 days)	concentration (% of total isomers) 13-Z (33 days)	Structure (SMILES)	other results
95.5 % of total isomers	1.1 % of total isomers	3.4 % of total isomers	84.3 % of total isomers	2.2 % of total isomers	13.5 % of total isomers	76.9 % of total isomers	2.4 % of total isomers	20.6 % of total isomers	68.4 % of total isomers	3.9 % of total isomers	27.7 % of total isomers	65.3 % of total isomers	0.7 % of total isomers	1.7 % of total isomers	5.6 % of total isomers	26.7 % of total isomers	53.5 % of total isomers	2.3 % of total isomers	2.8 % of total isomers	CC(C)=CCC\C(C)=C/C=C/C(C)=C/C=C/C(C)=C/C=C/C=C(C)/C=C/C=C(C)/C=C/C=C(\C)CCC=C(C)C [5-Z lycopene]	concentration (% of total isomers) all E (33 days): 10.7 % of total isomers; concentration (% of total isomers) x-Z (33 days): 30.7 % of total isomers
1.8 % of total isomers	4.4 % of total isomers	0 % of total isomers	2.1 % of total isomers	5.8 % of total isomers	2.8 % of total isomers	11.6 % of total isomers	6.0 % of total isomers	5.9 % of total isomers	1.5 % of total isomers	5.6 % of total isomers	8.6 % of total isomers	2.3 % of total isomers	66.5 % of total isomers	8.2 % of total isomers	7.0 % of total isomers	15.9 % of total isomers	4.1 % of total isomers	56.0 % of total isomers	10.5 % of total isomers	CC(C)=CCC/C(C)=C/C=C/C(C)=C\C=C\C(C)=C\C=C\C=C(C)\C=C\C=C(C)\C=C\C=C(/C)CCC=C(C)C [9-Z lycopene]	concentration (% of total isomers) 9-Z (0 days): 93.3 % of total isomers; concentration (% of total isomers) 13-Z (0 days): 0.6 % of total isomers; concentration (% of total isomers) 9-Z (1 day): 87.1 % of total isomers; concentration (% of total isomers) 13-Z (1 day): 2.3 % of total isomers; concentration (% of total isomers) 9-Z (2 days): 83.5 % of total isomers; concentration (% of total isomers) 13-Z (2 days): 3.1 % of total isomers; concentration (% of total isomers) 9-Z (5 days): 79.2 % of total isomers; concentration (% of total isomers) 13-Z (5 days): 5.2 % of total isomers; concentration (% of total isomers) all E (33 days): 9.8 % of total isomers; concentration (% of total isomers) x-Z (33 days): 19.7 % of total isomers
0 % of total isomers	2.4 % of total isomers	1.0 % of total isomers	0 % of total isomers	42.6 % of total isomers	0 % of total isomers	0 % of total isomers	59.8 % of total isomers	1.5 % of total isomers	1.9 % of total isomers	68.9 % of total isomers	4.3 % of total isomers	5.3 % of total isomers	2.6 % of total isomers	20.8 % of total isomers	65.5 % of total isomers	5.8 % of total isomers	11.7 % of total isomers	4.2 % of total isomers	16.9 % of total isomers	CC(C)=CCC/C(C)=C/C=C/C(C)=C/C=C/C(C)=C\C=C\C=C(C)\C=C\C=C(C)\C=C\C=C(/C)CCC=C(C)C [13-Z lycopene]	fraction of the isomer transformed / converted into other isomers (after 33 day storage in n-hexane at room temperature in the absence of light): more than 80%; concentration (% of total isomers) 9-Z (0 days): 0 % of total isomers; concentration (% of total isomers) 13-Z (0 days): 96.6 % of total isomers; concentration (% of total isomers) 9-Z (1 day): 0.4 % of total isomers; concentration (% of total isomers) 13-Z (1 day): 57.0 % of total isomers; concentration (% of total isomers) 9-Z (2 days): 0 % of total isomers; concentration (% of total isomers) 13-Z (2 days): 38.7 % of total isomers; concentration (% of total isomers) 9-Z (5 days): 1.5 % of total isomers; concentration (% of total isomers) 13-Z (5 days): 23.4 % of total isomers; concentration (% of total isomers) all E (33 days): 57.0 % of total isomers; concentration (% of total isomers) x-Z (33 days): 10.2 % of total isomers
0.5 % of total isomers	97.6 % of total isomers	0.1 % of total isomers	1.2 % of total isomers	86.0 % of total isomers	1.5 % of total isomers	2.6 % of total isomers	78.4 % of total isomers	3.0 % of total isomers	3.8 % of total isomers	69.3 % of total isomers	5.1 % of total isomers	6.4 % of total isomers	2.0 % of total isomers	18.2 % of total isomers	67.8 % of total isomers	5.6 % of total isomers	13.4 % of total isomers	3.8 % of total isomers	15.7 % of total isomers	CC(C)=CCC/C(C)=C/C=C/C(C)=C/C=C/C(C)=C/C=C/C=C(C)/C=C/C=C(C)/C=C/C=C(\C)CCC=C(C)C [all-E lycopene]	concentration (% of total isomers) 9-Z (0 days): 0.5 % of total isomers; concentration (% of total isomers) 13-Z (0 days): 1.4 % of total isomers; concentration (% of total isomers) 9-Z (1 day): 1.2 % of total isomers; concentration (% of total isomers) 13-Z (1 day): 10.1 % of total isomers; concentration (% of total isomers) 9-Z (2 days): 1.1 % of total isomers; concentration (% of total isomers) 13-Z (2 days): 15.0 % of total isomers; concentration (% of total isomers) 9-Z (5 days): 2.2 % of total isomers; concentration (% of total isomers) 13-Z (5 days): 19.6 % of total isomers; concentration (% of total isomers) all E (33 days): 58.7 % of total isomers; concentration (% of total isomers) x-Z (33 days): 8.4 % of total isomers
